According to US9714401B2, “Particles for malodor reduction” (The Procter & Gamble Company, priority 2015, dated 2017):

Assay: Blocker Index (BI), expert graders smelling isovaleric acid + test material swatches against isovaleric acid reference scale
Description: Material selection is done by assigning two indices to a test sample material from two reference scales in order to rank odor strengths. The two reference scales are the Fragrance Fidelity Index (FFI) scale and the Blocker Index (BI) scale. The FFI ranks the ability of the test sample material to impart a perceivable odor which could cause interference when combined with another fragrance and the BI ranks the ability of the test sample material to reduce malodor perception. The two methods for assigning the indices to a test sample on the FFI and the BI reference scales are given below.
The first step in the method for assigning a BI to a test sample material on the BI reference scale is to create the BI reference swatches. […] Fabric swatches for this test are white knit polycotton (4 inch×4 inch) swatches from EMC ordered as PC 50/50. The supplier is instructed to strip the swatches first, stripping involves washing twice with a fragrance-free detergent and rinsing three times.
The BI scale contains one clean swatch with no malodor applied. […] These solutions are pipetted to the middle of the swatches. […] After drying for 30 minutes in a vented hood, the swatches are wrapped in aluminum foil to prevent odor contamination to the treated swatch. A clean untreated swatch is also included as the lowest anchor point of reference for malodor strength on the BI scale. […]

Question: What does the source list for COC(=O)OC1CCC=CCCC1 (centres unmarked) [Material 1139]?
Answer: BI (Conc 10 ppm test material on swatch with 20 μL 0.08% isovaleric acid): 2.0; BI (Conc 50 ppm test material on swatch with 20 μL 0.08% isovaleric acid): 2.7
